Patent US11717508B2, “Compounds, compositions, and methods for inhibiting bacterial growth” (priority 2016, dated 2023)
Values joined by “and” are separate entries in the source; they are usually repeats but may differ in a detail not shown here. Identical values can stand only once. Like-named read-outs stand apart in the source and are kept apart here.

Test system: CDC1551(ΔdosR) mutant
Type: cell-based
Settings: for log2 Fold change: DosR mutant, HC101A vs DMSO; for Counts per million (CPM): DosR mutant treated with HC101A, replicates 1, 2

C[C@@H]1CC[C@H]2[C@@H](C)C(=O)O[C@@H]3O[C@]4(C)CC[C@@H]1[C@]32OO4 [HC101A, artemisinin, reference compound]
downregulated genes in CDC1551(ΔdosR) mutant treated with compound (40 μM, 6 days, >2-fold, p<0.05): 69 genes
log2 Fold change (gene MT0169 Rv0160c PE): −1.408
log2 Fold change (gene MT0258 Rv0244c fadE5): −1.069
log2 Fold change (gene MT0273 Rv0260c): −1.854
Counts per million (CPM) (gene MT0292 Rv0280 PPE): 31.79 CPM and 16.54 CPM
log2 Fold change (gene MT0292 Rv0280 PPE): −1.247
Counts per million (CPM) (gene MT0329 Rv0315): 113.2 CPM and 189.1 CPM
log2 Fold change (gene MT0329 Rv0315): −1.246
Counts per million (CPM) (gene MT0456 Rv0440 groEL2): 5,842.91 CPM and 4,666.11 CPM
log2 Fold change (gene MT0456 Rv0440 groEL2): −1.245
Counts per million (CPM) (gene MT0483 Rv0467 aceA): 884.5 CPM and 561.1 CPM
log2 Fold change (gene MT0483 Rv0467 aceA): −1.499
Counts per million (CPM) (gene MT0484): 179.4 CPM and 142.8 CPM
log2 Fold change (gene MT0484): −1.278
Counts per million (CPM) (gene MT0493 Rv0475): 790.8 CPM and 938.1 CPM
log2 Fold change (gene MT0493 Rv0475): −1.077
log2 Fold change (gene MT0532 Rv0511 cysG): 1.218
log2 Fold change (gene MT0533 Rv0512 hemB): 1.276
log2 Fold change (gene MT0583 Rv0557): 1.113
log2 Fold change (gene MT0586 Rv0560c): 1.95
log2 Fold change (gene MT0658 Rv0630c recB): 1.021
log2 Fold change (gene MT0705 Rv0676c mmpL5): 1.881
log2 Fold change (gene MT0706 Rv0677c mmpS5): 1.662
log2 Fold change (gene MT0706.1 Rv0678): 1.572
log2 Fold change (gene MT0772.5 Rv0747 PE_PGRS): 1.043
log2 Fold change (gene MT0808 Rv0784): 2.116
Counts per million (CPM) (gene MT0901 Rv0878c PPE): 18.57 CPM and 12.14 CPM
log2 Fold change (gene MT0901 Rv0878c PPE): −1.047
Counts per million (CPM) (gene MT0908 Rv0885): 437.9 CPM and 441.4 CPM
log2 Fold change (gene MT0908 Rv0885): −3.4
Counts per million (CPM) (gene MT0909 Rv0886 fprB): 103.6 CPM and 55.4 CPM
log2 Fold change (gene MT0909 Rv0886 fprB): −3.149
Counts per million (CPM) (gene MT0911 Rv0888): 9.416 CPM and 8.907 CPM
log2 Fold change (gene MT0911 Rv0888): −1.599
Counts per million (CPM) (gene MT0915.1): 9.867 CPM and 9.495 CPM
log2 Fold change (gene MT0915.1): −1.202
log2 Fold change (gene MT0956 Rv0929 pstC2): 1.037
Counts per million (CPM) (gene MT1019 Rv0990c): 62.69 CPM and 83.49 CPM
log2 Fold change (gene MT1019 Rv0990c): −1.236
Counts per million (CPM) (gene MT1020): 529.4 CPM and 1,032.48 CPM
log2 Fold change (gene MT1020): −1.261
log2 Fold change (gene MT1073 Rv1043c): 1.069
log2 Fold change (gene MT1123 Rv1091 PE_PGRS): 1.015
Counts per million (CPM) (gene MT1224 Rv1187 rocA): 50.05 CPM and 29.85 CPM
log2 Fold change (gene MT1224 Rv1187 rocA): −1.028
Counts per million (CPM) (gene MT1233 Rv1195 PE): 282.5 CPM and 86.53 CPM
log2 Fold change (gene MT1233 Rv1195 PE): −1.537
log2 Fold change (gene MT1296 Rv1257c): 1.198
log2 Fold change (gene MT1297 Rv1258c): 1.744
log2 Fold change (gene MT1303 Rv1265): 1.132
Counts per million (CPM) (gene MT1385): 26.31 CPM and 28.68 CPM
log2 Fold change (gene MT1385): −1.733
log2 Fold change (gene MT1424 Rv1380 pyrB): 1.245
log2 Fold change (gene MT1425 Rv1381 pyrC): 1.176
log2 Fold change (gene MT1426): 1.289
log2 Fold change (gene MT1427 Rv1383 car A): 1.005
log2 Fold change (gene MT1428 Rv1384 carB): 1.115
log2 Fold change (gene MT1429 Rv1385 pyrF): 1.522
Counts per million (CPM) (gene MT1430 Rv1386 PE): 77.39 CPM and 47.87 CPM
log2 Fold change (gene MT1430 Rv1386 PE): −1.005
Counts per million (CPM) (gene MT1431 Rv1387 PPE): 317.7 CPM and 543.6 CPM
log2 Fold change (gene MT1431 Rv1387 PPE): −1.201
Counts per million (CPM) (gene MT1484 Rv1439c): 6.965 CPM and 6.852 CPM
log2 Fold change (gene MT1484 Rv1439c): −1.508
Counts per million (CPM) (gene MT1585.1): 293.5 CPM and 393.7 CPM
log2 Fold change (gene MT1585.1): −2.24
Counts per million (CPM) (gene MT1586 Rv535 Rv1535): 44.69 CPM and 38.96 CPM
log2 Fold change (gene MT1586 Rv535 Rv1535): −1.971
log2 Fold change (gene MT1620 Rv1569 bioF): 1.182
Counts per million (CPM) (gene MT1627): 22.44 CPM and 21.44 CPM
log2 Fold change (gene MT1627): −1.25
Counts per million (CPM) (gene MT1628 Rv1592c): 334.3 CPM and 332.3 CPM
log2 Fold change (gene MT1628 Rv1592c): −1.21
Counts per million (CPM) (gene MT1736): 181.3 CPM and 300.2 CPM
log2 Fold change (gene MT1736): −1.039
Counts per million (CPM) (gene MT1775): 17.8 CPM and 12.82 CPM
log2 Fold change (gene MT1775): −1.012
log2 Fold change (gene MT1836 Rv1787 PPE): 1.847
